Experimental data reported in patent US20030092695A1, “Metal salts of 3-methyl-chromane or thiochromane derivatives” (priority 1999, published 2003).
≈ marks a conversion by molar mass, not a printed value.

Key:
[1] = system: increase in uterus weight by stimulus with estradiol; assay: Anti-estrogenic activity via oral administration (inhibition of estradiol-stimulated uterus weight increase); assay type: in vivo; settings: ovariectomized ICR mice, 17β-estradiol-benzoate 0.1 μg/day s.c. for 3 days, 10 mg/kg p.o., once a day, in 5% arabic gum
Procedure: Oral anti-estrogenic activity in vivo of the test compound was determined according to the method described hereinafter.
In this experiment, the test compound or the control compound was suspended in 5% arabic gum solution and orally administered for 3 days, once a day. After 24 hours from the last administration, the test animal was sacrificed and uterus was removed and weighed.

[2] = Solubility test in FaSSIF or water, shaken at 37° C., filtrate measured by HPLC
Procedure: The degree of improvement in solubility was determined by measuring the solubility of the test compound as follows.
To 1 mg of each compound was added 2 ml of FaSSIF (artificial intestinal juice, bile) or water, which was then shaken at 37° C. After 1, 2 and 20 hours, 200 μm of sample was taken and filtered. The concentration of the filtrate was measured by HPLC and the results are described in the following Table 2.

[3] = FaSSIF, 37 °C, thermodynamic from solid

For `C[C@@]1(c2ccc(O)cc2)CSc2cc(O)ccc2[C@@H]1CCCCCCCCC(CCCC(F)(F)C(F)(F)F)C(=O)[O-].[Na+]` (mixture of isomers) [Example 1, Sodium (3′RS,4′RS)-10-[7-hydroxy-3-(4-hydroxyphenyl)-3-methylthiochroman-4-yl]-2-(4,4,5,5,5-pentafluoropentyl)decanoate], the “Inhibition (%) of the increase in uterus weight by estradiol” value (“Inhibition (%) of the increase” below) [1] was 74%.

For `CC1(c2ccc(O)cc2)CSc2cc(O)ccc2C1CCCCCCCCC(CCCC(F)(F)C(F)(F)F)C(=O)O` (stereo not drawn) [(3′RS,4′RS)-10-[7-Hydroxy-3-(4-hydroxyphenyl)-3-methylthiochroman-4-yl]-2-(4,4,5,5,5-pentafluoropentyl)decanoic Acid], the “Inhibition (%) of the increase” value [1] was 79%.

For `C[C@]12CC[C@@H]3c4ccc(O)cc4C[C@@H](CCCCCCCCC[S+]([O-])CCCC(F)(F)C(F)(F)F)[C@H]3[C@@H]1CC[C@@H]2O` (stereo partly shown) [ICI182,780], the “Inhibition (%) of the increase” value [1] was 69%, the solubility at 1 h [2, 3] was 0.365 µg/mL (≈ 0.602 µM) and the solubility at 2 h [2, 3] was 0.474 µg/mL (≈ 0.781 µM). For the same molecule, the solubility at 20 h [2, 3] was 1.7 µg/mL (≈ 2.8 µM) and the “Solubility in water (in words)” value ([2]; water as the solvent) was “can hardly be solved in water”.
